Measured values published in ChEMBL document CHEMBL4813936, “Cyclopeptides from the Mushroom Pathogen Fungus Cladobotryum varium” (J Nat Prod, 2021).
The source made the active and inactive calls. The calls are words filed in the database; no cut-off is given here. Where a SMILES comes first, the peptide text is derived from it. [ ]: non-standard residue; d: D form. NMeF = CN[C@@H](Cc1ccccc1)C(=O)O; Hica(2S) = CC(C)C[C@H](O)C(=O)O; βAla = NCCC(=O)O

Experiments:
Candida albicans = assay: Antifungal activity against Candida albicans NBRC0197 assessed as reduction in microbial growth after 20 hrs by liquid microculture method; format: functional, organism-based
HeLa [1] = assay: Induction of autophagy in human HeLa cells expressing GFP-LC3 assessed as increase in punctate structures at 10 nM measured after 24 hrs by fluorescence microscopic analysis; format: functional, cell-based
Staphylococcus aureus = assay: Antibacterial activity against Staphylococcus aureus FDA209P JC-1 assessed as reduction in microbial growth after 20 hrs by liquid microculture method; format: functional, organism-based
Ralstonia solanacearum = assay: Antibacterial activity against Ralstonia solanacearum assessed as reduction in microbial growth after 20 hrs by liquid microculture method; format: functional, organism-based
Trichophyton rubrum = assay: Antifungal activity against Trichophyton rubrum NBRC5467 assessed as reduction in microbial growth after 20 hrs by liquid microculture method; format: functional, organism-based
HeLa [2] = assay: Induction of autophagy in human HeLa cells expressing GFP-LC3 assessed as suppression of autolysosome formation at 10 nM measured after 24 hrs by fluorescence microscopic analysis; format: functional, cell-based
Kocuria rhizophila = assay: Antibacterial activity against Kocuria rhizophila ATCC9341 assessed as reduction in microbial growth after 20 hrs by liquid microculture method; format: functional, organism-based
P388 = assay: Cytotoxicity against mouse P388 cells measure after 72 hrs by XTT assay; format: functional, cell-based
[3] = test system: Agrobacterium tumefaciens; assay: Antibacterial activity against Rhizobium radiobacter NBRC14554 assessed as reduction in microbial growth after 20 hrs by liquid microculture method; format: functional, organism-based

| Structure (SMILES) | Activity (Candida albicans) | Activity (HeLa [1]) | Activity (Staphylococcus aureus) | Activity (Ralstonia solanacearum) | Activity (Trichophyton rubrum) | Activity (HeLa [2]) | Activity (Kocuria rhizophila) | Activity (P388) | Activity [3] |
| --- | --- | --- | --- | --- | --- | --- | --- | --- | --- |
| CC[C@H](C)[C@@H]1NC(=O)[C@H](CC(C)C)NC(=O)[C@H](Cc2ccccc2)NC(=O)[C@@H](Cc2ccccc2)NC(=O)[C@@H](Cc2ccccc2)NC1=O | inactive | inactive | inactive | inactive | inactive | inactive | inactive | inactive | inactive |
| CC[C@H](C)[C@@H]1NC(=O)[C@@H]2CCCN2C(=O)[C@H](CC(C)C)OC(=O)CCNC(=O)[C@H](Cc2ccccc2)N(C)C(=O)[C@H](Cc2ccccc2)N(C)C1=O (cyclo(I[NMeF][NMeF][βAla][Hica(2S)]P)) | inactive | Active | inactive | inactive | inactive | Active | inactive | inactive | inactive |
| CC(C)C[C@@H]1OC(=O)CCNC(=O)[C@H](Cc2ccccc2)N(C)C(=O)[C@H](Cc2ccccc2)N(C)C(=O)[C@H](C(C)C)NC(=O)[C@@H]2CCCN2C1=O (cyclo([Hica(2S)]PV[NMeF][NMeF][βAla])) | inactive | inactive | inactive | inactive | inactive | inactive | inactive | inactive | inactive |
